Results published in patent US20090030086A1, “ANTIMICROBIAL AGENTS” (priority 2005, published 2009).
Converted amounts (≈) assume the structure as drawn.

Columns and labels:
S. aureus ATCC 29213 [1] = assay: MIC assay; format: cell-based, Staphylococcus aureus; conditions: Staphylococcus aureus, ATCC29213; S. aureus ATCC 29213; Mueller-Hinton broth pH 7.2, aerobic, 37° C., 24 hours; read-out: MIC
Procedure: 1. Staphylococcus aureus—the principal staphylococcal test micro-organism used in these studies was Staphylococcus aureus ATCC 29213. This strain is the one recommended for QC/QA purposes in Minimum Inhibitory Concentration (MIC) assays by the US Clinical and Laboratory Standards Institute (formerly the NCCLS), an FDA-recognised body.
(§1) The staphylococci and enterococci were cultured and maintained on Mueller-Hinton Medium (agar and broth) at pH 7.2; they were incubated aerobically at 37° C. for 24 hours.
(§2) This is a standard international method for quantitatively assessing the antimicrobial activity of a compound in a liquid medium. The method used a 96-well microtitre plate, capable of holding about 200 μl of liquid per well. […] The culture media were as described above for the relevant test organisms.
(§3) The wells were inoculated with a liquid suspension of freshly grown micro-organism and incubated under the conditions described above. After incubation, the microtitre plate was examined visually (with the aid of a light box) for cloudiness in each well, which would indicate microbial growth. The MIC value was recorded as the lowest concentration of test compound required to inhibit microbial growth, i.e., the lowest concentration for which the liquid in the well remained clear.
(§4) The assays were conducted in duplicate and included both negative (culture medium only) and positive (culture medium, diluting solvent and inoculum) controls.
(§5) The following experiments all used S. aureus ATCC 29213 as the test organism. MIC, MBC and DDA assays, as described above, were carried out using a range of different benzoquinones and hydroquinones. Supplemented DDA assays, in the presence of salt, lipid and blood, were also conducted.

S. aureus ATCC 29213 [2] = assay: MBC assay; format: cell-based, Staphylococcus aureus; conditions: for MBC: Staphylococcus aureus, ATCC29213, read-out: MBC
Procedure: as §1
(§6) This assay, normally carried out after an MIC assay, determines the minimum concentration of a compound that is lethal to the micro-organism being tested.
(§7) These samples were then individually sub-cultured on non-selective agar medium, under the incubation conditions described above. Following incubation they were examined visually for bacterial growth.
as §5

S. aureus ATCC 29213 [3] = assay: Disc diffusion assay (DDA); format: cell-based, Staphylococcus aureus; conditions: Staphylococcus aureus, ATCC29213; S. aureus ATCC 29213; unsupplemented agar; 200 μg per disc (thymoquinone 50 μg, 2,6-dimethoxy-p-benzoquinone 100 μg); read-out: DDA (diameter of zone of inhibition)
Procedure: as §1
(§8) A sterile paper disc was impregnated with a sample of the test compound and a minimum of 30 minutes allowed for the solvents to evaporate as far as possible. The disc was then placed on an agar plate onto which the test micro-organism had been inoculated. The plate was then incubated under the conditions described above, following which it was examined visually for signs of bacterial growth. […] The diameter of this zone of “inhibition” was measured using a ProtoCOL™ automated zone sizer (Synbiosis, Cambridge, UK).
(§9) The area of the zone of inhibition was calculated from the measured zone diameter (D) using the formula π(D/2)^2.
(§10) For most DDA assays, 200 μg of each compound was loaded onto each disc.

S. aureus ATCC 29213 [4] = assay: Supplemented disc diffusion assay; format: cell-based, Staphylococcus aureus; conditions: Staphylococcus aureus, ATCC29213, 24 h, S. aureus ATCC 29213, 200 μg per disc (thymoquinone 50 μg, 2,6-dimethoxy-p-benzoquinone 100 μg)
Procedure: as §1, §8
(§11) Performance under these conditions can provide a more reliable indication of activity on topical application. For assays conducted using S. aureus strains, the supplements were defibrinated horse blood (5% v/v), lipid (Tween™ 80 at 1% v/v) and sodium chloride (100 mM). For those using Propionibacterium spp. strains, the supplements were lipid (Tween™ 80 at 1% v/v) and sodium chloride (100 mM).
as §5, §10

P. acnes NCTC 737 [5] = assay: MIC assay; format: cell-based, Propionibacterium acnes; conditions: Cutibacterium acnes, NCTC737; P. acnes NCTC 737; Wilkins-Chalgren broth pH 6.0, anaerobic, 37° C., 72 hours; read-out: MIC
Procedure: 2. Propionibacterium spp.—the principal propionibacterial strain used in these studies was Propionibacterium acnes NCTC 737.
(§12) The Propionibacterium spp organisms were cultured and maintained on Wilkins-Chalgren Anaerobe Medium (agar and broth) at pH 6.0; cultures were incubated anaerobically at 37° C. for 72 hours.
as §2, §3, §4
(§13) MIC, MBC and DDA assays, as described above, were carried out using a range of different benzoquinones and hydroquinones. Supplemented DDA assays, in the presence of salt and lipid, were also conducted.

P. acnes NCTC 737 [6] = assay: MBC assay; format: cell-based, Propionibacterium acnes; conditions: P. acnes NCTC 737; for MBC: Cutibacterium acnes, NCTC737, read-out: MBC
Procedure: as §12, §6, §7, §13

P. acnes NCTC 737 [7] = assay: Disc diffusion assay (DDA); format: cell-based, Propionibacterium acnes; conditions: Cutibacterium acnes, NCTC737; P. acnes NCTC 737; unsupplemented agar; 200 μg per disc (2,6-dimethoxy-p-benzoquinone 100 μg); read-out: DDA (diameter of zone of inhibition)
Procedure: as §12, §8, §9, §10

P. acnes NCTC 737 [8] = assay: Supplemented disc diffusion assay; format: cell-based, Propionibacterium acnes; conditions: P. acnes NCTC 737; for zone of inhibition at 200 µg/disc: Cutibacterium acnes, NCTC737, 72 h, 200 μg per disc (2,6-dimethoxy-p-benzoquinone 100 μg)
Procedure: as §12, §8, §11, §13, §10

[9] = Tween 80 at 1% v/v, read-out: DDA + lipid
[10] = defibrinated horse blood 5% v/v, read-out: DDA + blood
[11] = sodium chloride 100 mM, read-out: DDA + salt

Row | Compound | MIC (S. aureus ATCC 29213 [1]) | MIC/MBC ratio (S. aureus ATCC 29213 [2]) | MBC (S. aureus ATCC 29213 [2]) | zone of inhibition at 200 µg/disc (S. aureus ATCC 29213 [3]) | zone of inhibition at 200 µg/disc (S. aureus ATCC 29213 [4]; [9]) | zone of inhibition at 200 µg/disc (S. aureus ATCC 29213 [4]; [10]) | zone of inhibition at 200 µg/disc (S. aureus ATCC 29213 [4]; [11]) | MIC (P. acnes NCTC 737 [5]) | MBC (P. acnes NCTC 737 [6]) | MIC/MBC ratio (P. acnes NCTC 737 [6]) | zone of inhibition at 200 µg/disc (P. acnes NCTC 737 [7]) | zone of inhibition at 200 µg/disc (P. acnes NCTC 737 [8]; [9]) | zone of inhibition at 200 µg/disc (P. acnes NCTC 737 [8]; [11]) | effect of lipid on antimicrobial activity (P. acnes NCTC 737 [8]; activity increases in the presence of lipid)
1 | O=[N+]([O-])c1c(O)cccc1O [2-nitroresorcinol] | 125 µg/mL (≈ 806 µM) | <0.5 | > 250 µg/mL | 10.5 mm | 0 mm | 0 mm | 12.8 mm | 125 µg/mL (≈ 806 µM) | > 250 µg/mL | <0.5 | 0 mm | 0 mm | 12.7 mm | 
2 | CC(C)(C)C1=CC(=O)C=CC1=O [2-t-butyl-p-benzoquinone] | 15.6 µg/mL (≈ 95 µM) | 1 | 15.6 µg/mL (≈ 95 µM) | 58.5 mm | > 90 mm | 10.9 mm | 54.7 mm | 7.8 µg/mL (≈ 47.5 µM) | 15.6 µg/mL (≈ 95 µM) | 0.5 | 60.8 mm | > 90 mm | > 90 mm | potentiated
3 | CC(C)(C)C1=CC(=O)C(=O)C(C(C)(C)C)=C1 [3,5-di-t-butyl-o-benzoquinone] | 7.8 µg/mL (≈ 35.4 µM) | 1 | 7.8 µg/mL (≈ 35.4 µM) | 23.4 mm | 17.4 mm | 15.9 mm | 23 mm | 15.6 µg/mL (≈ 70.8 µM) | 15.6 µg/mL (≈ 70.8 µM) | 1 | 31.8 mm | 26.4 mm | 40.5 mm | 
4 | CC(C)(C)c1cc(O)c(O)c(C(C)(C)C)c1 [3,5-di-t-butylcatechol] | 7.8 µg/mL (≈ 35.1 µM) | 1 | 7.8 µg/mL (≈ 35.1 µM) | 18.8 mm | 10.9 mm | 11.9 mm | 19.7 mm | 7.8 µg/mL (≈ 35.1 µM) | 15.6 µg/mL (≈ 70.2 µM) | 0.5 | 35.9 mm | 0 mm | 37.3 mm | 
5 | CC(C)(C)c1cc(C(C)(C)C)c(O)cc1O [4,6-di-t-butylresorcinol] | 7.8 µg/mL (≈ 35.1 µM) | 0.5 | 15.6 µg/mL (≈ 70.2 µM) | 8.09 mm | 0 mm | 0 mm | 8.4 mm | 7.8 µg/mL (≈ 35.1 µM) | 15.6 µg/mL (≈ 70.2 µM) | 0.5 | 36.6 mm | 0 mm | 37.8 mm | 
